Assay results: ChEMBL document CHEMBL4627303, “Design, synthesis and evaluation of flurbiprofen-clioquinol hybrids as multitarget-directed ligands against Alzheimer's disease” (Bioorg Med Chem, 2020)
Activity calls are given as the source filed them. The rule behind the calls is not given here.

Key:
[1] = Antioxidant activity assessed as AAPH-induced radical scavenging activity by measuring trolox equivalents for oxygen radical absorbance capacity measured every minute for 90 mins by ORAC-FL assay; format: functional
[2] = molecular target: T1, Amine oxidase [flavin-containing] A (Homo sapiens, UniProt P21397); assay: Inhibition of recombinant human MAOA expressed in baculovirus infected in BTI cells at 10 uM using kynuramine as substrate after 30 mins by fluorescence based assay relative to control; conditions: 0.5 h
T1 sequence (P21397 whole entry): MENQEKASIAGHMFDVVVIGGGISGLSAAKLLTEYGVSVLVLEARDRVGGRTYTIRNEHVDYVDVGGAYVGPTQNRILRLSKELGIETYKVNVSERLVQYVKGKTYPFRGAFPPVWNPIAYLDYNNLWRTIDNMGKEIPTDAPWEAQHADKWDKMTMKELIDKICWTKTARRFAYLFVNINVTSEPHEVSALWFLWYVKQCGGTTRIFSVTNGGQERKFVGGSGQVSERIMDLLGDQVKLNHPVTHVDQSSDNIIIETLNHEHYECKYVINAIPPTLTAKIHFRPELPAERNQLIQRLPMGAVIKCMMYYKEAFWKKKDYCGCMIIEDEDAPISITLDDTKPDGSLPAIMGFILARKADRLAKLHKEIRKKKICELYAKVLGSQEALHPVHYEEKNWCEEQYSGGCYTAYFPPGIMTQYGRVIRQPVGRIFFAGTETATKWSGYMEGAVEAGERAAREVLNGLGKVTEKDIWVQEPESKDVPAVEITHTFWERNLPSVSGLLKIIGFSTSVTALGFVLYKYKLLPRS

[3] = molecular target: T2, Amine oxidase [flavin-containing] B (Homo sapiens, UniProt P27338); assay: Inhibition of recombinant human MAOB expressed in baculovirus infected in BTI cells at 10 uM using kynuramine as substrate after 30 mins by fluorescence based assay relative to control; conditions: 0.5 h
T2 sequence (P27338 whole entry): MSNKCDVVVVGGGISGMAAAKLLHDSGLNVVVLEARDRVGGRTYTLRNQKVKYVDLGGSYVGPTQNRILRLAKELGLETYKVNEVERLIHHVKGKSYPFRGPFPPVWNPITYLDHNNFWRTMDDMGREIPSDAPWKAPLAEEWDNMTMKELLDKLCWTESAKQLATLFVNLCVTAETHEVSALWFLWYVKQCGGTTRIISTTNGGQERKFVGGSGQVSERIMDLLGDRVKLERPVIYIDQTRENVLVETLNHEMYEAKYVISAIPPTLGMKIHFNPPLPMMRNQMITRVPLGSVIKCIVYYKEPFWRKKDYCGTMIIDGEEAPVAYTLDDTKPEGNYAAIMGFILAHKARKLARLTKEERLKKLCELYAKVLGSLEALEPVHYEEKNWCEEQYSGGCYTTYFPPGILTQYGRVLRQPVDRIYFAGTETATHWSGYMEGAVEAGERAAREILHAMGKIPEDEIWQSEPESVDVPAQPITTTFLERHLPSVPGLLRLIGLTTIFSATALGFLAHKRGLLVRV

[4] = molecular target: T2, Amine oxidase [flavin-containing] B; assay: Inhibition of recombinant human MAOB expressed in baculovirus infected in BTI cells using kynuramine as substrate after 30 mins by fluorescence based assay; format: cell-based
[5] = molecular target: Amyloid-beta precursor protein (Homo sapiens) (UniProt P05067); assay: Inhibition of HFIP-pretreated amyloid beta (1 to 42) (unknown origin) self-aggregation at 25 uM after 24 hrs by thioflavin-T fluorescence assay relative to control
Amyloid-beta precursor protein (Homo sapiens), sequence (P05067 whole entry): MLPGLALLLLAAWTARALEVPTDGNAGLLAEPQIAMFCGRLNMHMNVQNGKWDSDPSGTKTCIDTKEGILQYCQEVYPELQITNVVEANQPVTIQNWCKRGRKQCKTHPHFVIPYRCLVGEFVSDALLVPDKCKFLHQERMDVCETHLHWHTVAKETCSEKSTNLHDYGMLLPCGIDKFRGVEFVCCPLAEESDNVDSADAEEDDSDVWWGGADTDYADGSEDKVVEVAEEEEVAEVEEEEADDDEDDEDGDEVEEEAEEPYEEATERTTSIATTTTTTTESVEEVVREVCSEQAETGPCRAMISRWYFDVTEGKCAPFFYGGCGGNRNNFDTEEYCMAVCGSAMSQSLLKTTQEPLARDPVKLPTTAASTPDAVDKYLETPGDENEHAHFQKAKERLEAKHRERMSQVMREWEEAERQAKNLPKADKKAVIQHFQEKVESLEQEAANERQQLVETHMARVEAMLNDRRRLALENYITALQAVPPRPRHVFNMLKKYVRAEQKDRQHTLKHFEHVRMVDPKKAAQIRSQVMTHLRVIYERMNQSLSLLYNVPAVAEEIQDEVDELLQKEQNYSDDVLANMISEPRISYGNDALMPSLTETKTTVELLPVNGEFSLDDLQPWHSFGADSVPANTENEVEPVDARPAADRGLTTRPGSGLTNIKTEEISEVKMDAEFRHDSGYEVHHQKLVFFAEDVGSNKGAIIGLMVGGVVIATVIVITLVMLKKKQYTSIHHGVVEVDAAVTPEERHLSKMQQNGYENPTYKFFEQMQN

[6] = molecular target: Amyloid-beta precursor protein (Homo sapiens) (UniProt P05067); assay: Inhibition of Cu2+-induced HFIP-pretreated amyloid beta (1 to 42) (unknown origin) aggregation at 25 uM measured after 24 hrs by thioflavin-T fluorescence assay relative to control
[7] = molecular target: Amyloid-beta precursor protein (Homo sapiens) (UniProt P05067); assay: Disaggregation of self-induced amyloid beta (1 to 42) (unknown origin) preformed fibrils at 25 uM measured after 24 hrs by thioflavin-T fluorescence assay relative to control
PC-12 [8] = assay: Neuroprotective activity against H2O2-induced cytotoxicity in rat PC12 cells assessed as cell viability at 1 uM preincubated for 2 hrs followed by H2O2 addition and measured after 24 hrs by MTT assay (reference value: 48.3%); format: functional; conditions: read-out: Activity
PC-12 [9] = assay: Neuroprotective activity against H2O2-induced cytotoxicity in rat PC12 cells assessed as cell viability at 10 uM preincubated for 2 hrs followed by H2O2 addition and measured after 24 hrs by MTT assay (reference value: 48.3%); format: functional; conditions: read-out: Activity
BV-2 [10] = assay: Cytotoxicity against mouse BV2 cells assessed as reduction in cell viability at 0.5 to 10 uM measured after 30 mins by MTT assay; format: cell-based; conditions: bv-2, 0.5 h
BV-2 [11] = assay: Cytotoxicity against LPS-induced mouse BV2 cells assessed as reduction in cell viability at 0.5 to 10 uM preincubated for 30 mins followed by LPS stimulation and measured after 24 hrs by MTT assay; format: cell-based; conditions: bv-2, 24 h
BV-2 [12] = assay: Anti-neuroinflammatory activity in mouse BV2 cells assessed as inhibition of LPS-induced NO production at 0.5 uM preincubated for 30 mins followed by LPS stimulation measured after 24 hrs by Griess reagent based assay relative to control; format: functional
BV-2 [13] = assay: Anti-neuroinflammatory activity in mouse BV2 cells assessed as inhibition of LPS-induced NO production at 2.5 uM preincubated for 30 mins followed by LPS stimulation measured after 24 hrs by Griess reagent based assay relative to control; format: functional
BV-2 [14] = assay: Anti-neuroinflammatory activity in mouse BV2 cells assessed as inhibition of LPS-induced NO production at 10 uM preincubated for 30 mins followed by LPS stimulation measured after 24 hrs by Griess reagent based assay relative to control; format: functional
BV-2 [15] = assay: Effect on nitric oxide production in mouse BV2 cells at 0.5 to 10 uM measured after 30 mins by Griess reagent based […]; format: ADME, cell-based; conditions: bv-2, 0.5 h
BV-2 [16] = assay: Anti-neuroinflammatory activity in mouse BV2 cells assessed as inhibition of LPS-induced TNFalpha production at 0.5 uM preincubated for 30 mins followed by LPS stimulation measured after 24 hrs by ELISA relative to control; format: functional
BV-2 [17] = assay: Anti-neuroinflammatory activity in mouse BV2 cells assessed as inhibition of LPS-induced TNFalpha production at 2.5 uM preincubated for 30 mins followed by LPS stimulation measured after 24 hrs by ELISA relative to control; format: functional
BV-2 [18] = assay: Anti-neuroinflammatory activity in mouse BV2 cells assessed as inhibition of LPS-induced TNFalpha production at 10 uM preincubated for 30 mins followed by LPS stimulation measured after 24 hrs by ELISA relative to control; format: functional
BV-2 [19] = assay: Effect on TNFalpha production in mouse BV2 cells at 10 uM measured after 30 mins by ELISA; format: ADME, cell-based; conditions: bv-2, 0.5 h
[20] = Effective permeability of the compound in PBS/EtOH buffer (7:3) at 100 ug/ml after 18 hrs by PAMPA-BBB assay; format: ADME; conditions: read-out: Peff
[21] = Metal chelating activity assessed as Cu2+-compound complex formation at 37.5 uM measured after 2 hrs in presence of 37.5 uM CuCl2 by UV-Vis spectrophotometric analysis
[22] = Metal chelating activity assessed as Al3+-compound complex formation at 37.5 uM measured after 2 hrs in presence of 37.5 uM AlCl3 by UV-vis spectrophotometric analysis
[23] = Metal chelating activity assessed as Zn2+-compound complex formation at 37.5 uM measured after 2 hrs in presence of 37.5 uM ZnCl2 by UV-vis spectrophotometric analysis
[24] = Metal chelating activity assessed as Fe2+-compound complex formation at 37.5 uM measured after 2 hrs in presence of 37.5 uM FeSO4 by UV-vis spectrophotometric analysis
[25] = Metal chelating activity assessed as compound-Cu2+ complex stoichiometry ratio of 1:1 at 37.5 uM in presence of CuCl2 after 15 mins by UV-visible spectrophotometric analysis
PC-12 [26] = assay: Neuroprotective activity against H2O2-induced cytotoxicity in rat PC12 cells assessed as increase in cell viability preincubated for 2 hrs followed by H2O2 addition and measured after 24 hrs by MTT assay; format: functional, cell-based
BV-2 [27] = assay: Anti-neuroinflammatory activity in mouse BV2 cells assessed as inhibition of LPS-induced NO production preincubated for 30 mins followed by LPS stimulation measured after 24 hrs by Griess reagent based assay; format: functional, cell-based
BV-2 [28] = assay: Anti-neuroinflammatory activity in mouse BV2 cells assessed as inhibition of LPS-induced TNFalpha production preincubated for 30 mins followed by LPS stimulation measured after 24 hrs by ELISA; format: functional, cell-based

COC(=O)C(C)c1ccc(-c2ccc(NCc3cc(N(C)C)ccc3O)cc2)c(F)c1 (stereo not given)
Activity [1]: 2.44 µMequiv/µM | inhibition at 10 µM [2]: 26.3% | inhibition at 10 µM [3]: 52.4% | IC50 [4]: 10.3 µM | inhibition [5]: 96.3% | inhibition [6]: 84.3% | Activity [7]: 91.1% | viability at 1 µM (PC-12 [8]): 70.2% | viability at 10 µM (PC-12 [9]): 81.6% | Activity (BV-2 [10]): Non-Toxic | Activity (BV-2 [11]): Non-Toxic | inhibition at 0.5 µM (BV-2 [12]): 32.4% | inhibition at 2.5 µM (BV-2 [13]): 46.7% | inhibition at 10 µM (BV-2 [14]): 57.2% | Activity (BV-2 [15]): Non-Toxic | inhibition at 0.5 µM (BV-2 [16]): 35.8% | inhibition at 2.5 µM (BV-2 [17]): 53.1% | inhibition at 10 µM (BV-2 [18]): 76.5% | Activity (BV-2 [19]): Non-Toxic | Papp at 18 h, 100 ug/ml [20]: 5.48 ×10⁻⁶ cm/s | Activity [21]: Active | Activity [22]: Active | Activity [23]: inactive | Activity [24]: inactive | Activity [25]: Active | Activity (PC-12 [26]): Dose-dependent effect | inhibition (BV-2 [27]): Dose-dependent effect | inhibition (BV-2 [28]): Dose-dependent effect

COC(=O)C(C)c1ccc(-c2ccccc2NCc2cc(N(C)C)ccc2O)c(F)c1 (stereo not given)
Activity [1]: 1.91 µMequiv/µM | inhibition at 10 µM [2]: 35.4% | inhibition at 10 µM [3]: 34.6% | inhibition [5]: 96.1% | inhibition [6]: 87.3% | Activity [7]: 91.1% | viability at 1 µM (PC-12 [8]): 68.6% | viability at 10 µM (PC-12 [9]): 80% | Activity (BV-2 [10]): Non-Toxic | Activity (BV-2 [11]): Non-Toxic | inhibition at 0.5 µM (BV-2 [12]): 26.9% | inhibition at 2.5 µM (BV-2 [13]): 43.4% | inhibition at 10 µM (BV-2 [14]): 52.4% | Activity (BV-2 [15]): Non-Toxic | inhibition at 0.5 µM (BV-2 [16]): 35% | inhibition at 2.5 µM (BV-2 [17]): 49.1% | inhibition at 10 µM (BV-2 [18]): 68.1% | Activity (BV-2 [19]): Non-Toxic | Papp at 18 h, 100 ug/ml [20]: 4.09 ×10⁻⁶ cm/s | Activity [21]: Active | Activity [22]: Active | Activity [23]: inactive | Activity [24]: inactive | Activity [25]: Active | Activity (PC-12 [26]): Dose-dependent effect | inhibition (BV-2 [27]): Dose-dependent effect | inhibition (BV-2 [28]): Dose-dependent effect
